Source: a melting point compilation (Tetko et al.; mined from patent text by program, amines drawn as free bases though some values may be those of a salt)

Structure (SMILES)	melting point
O=C(O)C1=CSC2C(=Cc3cc4c(s3)CCOC4)C(=O)N12 (stereo unspecified)	> 250 °C
Cc1nn(-c2c(Cl)cc(C(F)(F)F)cc2Cl)c(C)c1-c1nc(C#N)c(C#N)[nH]1	80 to 83 °C
CC(C)C[C@H](NC(=O)c1ccc2c(c1)Nc1ccccc1S2)C(=O)N[C@@H](CC(C)C)C(=O)N[C@@H](CC(C)C)C(=O)N[C@H]1CCOC1O (stereo partly specified)	174 to 176 °C
C=C1CCC2C3CC(=O)C4=CC(=O)CCC4(C)C3CCC12C (stereo unspecified)	113 to 115 °C
Cc1c2c(c(C)c3c1NCC3)OC(C)(CI)C2 (stereo unspecified)	90 to 91 °C
CCOC(=O)C1CNc2cc([N+](=O)[O-])ccc2O1 (stereo unspecified)	88 to 90 °C
C[C@H](NC(=O)OC(C)(C)C)C(=O)N[C@H]1CCNC1	137 to 138 °C
CC=C(Cl)C(Cl)CC(O)(Cn1cncn1)C1(Cl)CC1 (stereo unspecified)	79 to 80 °C
Nc1ccn([C@H]2C=C[C@@H](O)C2)c(=O)n1 (racemic)	241 to 242 °C
CC(C)=CC(=O)c1sccc1O	32 to 33 °C
O=C1CCNC(=O)C1C(=O)c1ccc(C(F)(F)F)cc1 (stereo unspecified)	197 to 200 °C
CCC1CC(NC(C)=O)=NN1c1cccc(Cl)n1 (stereo unspecified)	170 to 171 °C
CC(C)CN1C(=O)[C@H](CCCC#N)C[C@H]1CO	46 to 48 °C
CCCCNC(=O)NS(=O)(=O)c1ccn(C)n1	168 to 169 °C
O=C(COCCCl)Nc1ccc([N+](=O)[O-])cc1	101 to 102 °C
CC(=O)NC(C)(C(=O)O)C(C)C (stereo unspecified)	189 to 190 °C
CC(C)(C)OC(=O)C=Cc1cnc2ccccc2c1	128 to 129 °C
O=S(=O)(c1ccc(S(=O)(=O)C2CCCCC2)nc1)C1CCCCC1	213 °C
CC(C)C(NC(=O)OC(C)(C)C)C(=O)NC(C(=O)OC1CC(n2cc(C=CBr)c(=O)[nH]c2=O)OC1CCl)C(C)C (stereo unspecified)	114 to 116 °C
CC12CCC(=O)C=C1CCC1C2=CCC2(C)C1CCC2(O)C#N (stereo unspecified)	225 to 228 °C
CSc1ccc(C2(C(C)=O)C=CC=CC2)cc1 (stereo unspecified)	182 to 184 °C
Cc1c(C=O)cccc1-n1cccc1	82 °C
NC(=S)NN1CCc2cc(Cl)ccc21	199 to 200 °C
O=C1C=C(O)CC(c2ccc3c(c2)OCCO3)C1 (stereo unspecified)	188 °C
COC(=O)C1=C(C)NC(=O)N(C(=O)OC)C1c1cccc([N+](=O)[O-])c1 (stereo unspecified)	152 to 155 °C
CC1(C)Oc2cc3nc(SCc4ccccn4)[nH]c3cc2O1	210 to 211 °C
CC(C)(C)OC(=O)N[C@@H]1C(=O)N(OCC(=O)OCc2ccc([N+](=O)[O-])cc2)[C@@H]1COC(N)=O	189 to 191 °C
CC(C)c1cc(C(C)C)c(CC(=O)NS(=O)(=O)Oc2c(C(C)C)cc(NCCO)cc2C(C)C)c(C(C)C)c1	149 to 152 °C
NC(CC(=O)O)c1ccc2c(c1)OCCO2 (stereo unspecified)	222 to 223 °C
CCN(CC)C(=O)c1nc(C)c(-c2ccncc2)s1	87.5 to 89 °C

Second part, the compound after the results:

melting point	Structure (SMILES)
192 to 194 °C	CCCNC(=O)C(C)Cc1ccc2ccn(Cc3ccc(C(=O)NS(=O)(=O)c4ccccc4C)cc3OC)c2c1 (stereo unspecified)
193 °C	Cc1nc(Cl)c2c(c1O)COC2CCc1ccccc1 (stereo unspecified)
146 to 147 °C	COCN(c1cccc2cc(C(=O)/N=C/N(C)C)n(COC)c12)S(=O)(=O)c1cccs1
158 to 161 °C	O=C(Nc1ccc(Oc2ccc(Cl)cc2)cc1)N1CC(c2ccccc2)=C(c2ccc(Cl)cc2)N1
228 to 231 °C	O=C(CN1CCC(Cc2ccc(F)cc2)CC1)Nc1ccc2[nH]c(=O)oc2c1
214 °C	CCOC(=O)C(C(=O)C(C)C)C1c2nccnc2C(=O)N1c1ccc2ccc(Cl)nc2n1 (stereo unspecified)
65 °C	c1ccc(OCCSCc2nnc(-c3ccc(OCCCN4CCOCC4)cc3)o2)cc1
172 to 173 °C	CCCc1nc2c(N)nc3ccccc3c2n1CCC(=O)N1CCOCC1
169 to 170 °C	NC(=O)c1cc(-c2cccc3cc(Cc4cccc(C(F)(F)F)c4)sc23)ccc1F
182 to 183 °C	Cc1ccc(-n2ccc(=O)c(-c3ccnn3-c3ccccc3)n2)cc1
192 to 193 °C	O=c1[nH]c(CCN2CCCC(O)C2)cc2ccccc12 (stereo unspecified)
92 to 94 °C	COc1ccc(Cn2cnc(C(=N)C#N)c2N)cc1
125 to 131 °C	c1ccc(CCc2[nH]ncc2-c2ccncc2)cc1
209 to 212 °C	O=C1NC(=O)C(c2ccccc2Cl)C1c1cc2c3c(ccn3CCC2)c1 (stereo unspecified)
155 to 156 °C	CCCCc1oc2ccccc2c1C(=O)NCc1ccc2cc(O)ccc2c1
362 to 366 °C	NC(=O)c1nc(-c2cccc(O)c2)nc2c1[nH]c(=O)n2Cc1ccccc1
279 to 281 °C	CN(C)C1=NC2=NC3=C(CN(Cc4ccccc4)CC3=O)CN2N1
157 °C	COc1ccccc1C(CNc1c(C#N)cnn2cccc12)N1CCOCC1 (stereo unspecified)
188 to 189 °C	c1ccc(Sc2c[nH]c3ncccc23)cc1
194 °C	COC(C)c1cccc(NC(=O)NCC(=O)N(CC(=O)N(C)c2ccccc2)c2ccccc2)c1 (racemic)
68 to 70 °C	CCN1C[C@@H](SCc2ccc(OC)cc2)C[C@H]1C(=O)NC

melting point	Structure (SMILES)
163 to 164 °C	Cc1ccc(-c2ccccc2C(=O)Nc2ccc(C(=O)N3C[C@@H]4C[C@@H](O)CN4c4ccccc43)cc2)cc1
255 to 258 °C	CC(=O)Nc1ccc2oc(-c3ccc(OCc4ccccc4)cc3)c(O)c(=O)c2c1
226 °C	ON=C(c1ccc(F)cc1)c1ccc2nc(N[C@@H]3CCc4ccccc43)ccc2c1
137 to 141 °C	CCCCCCCCCCCCOCCCNc1cc(OCC(=O)Nc2ccc(NNC=O)cc2)c2ccccc2c1O
106 to 109 °C	CCOC(=O)c1ccc(NCCCc2ccccc2OC)cc1
133 to 135 °C	COc1ccc(S(=O)(=O)Nc2ccccc2NC(=O)c2cccnc2Cl)cc1
213 to 220 °C	CN1CCC(CNc2ncc3cc(-c4ccccc4Cl)c(=O)[nH]c3n2)CC1
58 to 60 °C	O=C(C=CC=Cc1ccccc1)c1cccc([N+](=O)[O-])c1
190 °C	CS(=O)(=O)c1ccc(-c2nnc(Cl)cc2-c2ccc(Cl)cc2)cc1
90 to 95 °C	Cn1c(COc2ccc(CC3SC(=O)N(C(c4ccccc4)(c4ccccc4)c4ccccc4)C3=O)cc2)nc2ccc(Sc3ccccc3)nc21 (stereo unspecified)
130 to 132 °C	Cc1onc(C(C)(O)c2ccccc2)c1NC(=O)CCl (stereo unspecified)
146 to 148 °C	O=C(O)C(=O)c1c(F)c(F)c(OCCOc2ccc3ccccc3c2)c(F)c1F
111 to 113 °C	Cc1cn(C)cc(-c2ccccc2)c1=O
231 to 233 °C	Oc1nc(-c2ccc(F)cc2)sc1-c1ccccc1
62 to 64 °C	Cc1cc(SC(C)c2cccc3cn(-c4ccc(C(F)(F)F)cc4)nc23)ccc1OCC(=O)O (stereo unspecified)
251 to 253 °C	CN1CCN(c2c(CO)cnc3c(NC(=O)c4c(Cl)cccc4Cl)cccc23)C1=O
120 to 122 °C	O=C(OCc1ccc(C(F)(F)F)cc1)N1CCN(CC2Cn3cc([N+](=O)[O-])nc3O2)CC1 (stereo unspecified)
144 °C	CC(C)C(=O)Oc1ccc(C(=O)c2ccc(OC(=O)C(C)C)cc2)cc1
143 to 145 °C	O=C1C=C(c2cccc(Cl)c2)CN(Cc2ccccc2)C1
124 to 125 °C	CCCc1nn(-c2ccc(C(F)(F)F)cn2)cc1CCCOc1cc(CC(=O)O)ccc1OCC
